Assay results: publication PMC10175918 (Communications Biology, 2023)
Read-outs that look alike come from different tables or passages of the source.

Columns and labels:
Assay in all cases: cell-based
Set-up in all cases: species or system HEK293A; AP-TGFα shedding assay, transfected GPCR plus chimeric Gα mixture, AP release as % of TPA response
Conditions in all cases: HEK293-A
[1] = molecular target: T1, lysophosphatidic acid receptor 4 (Homo sapiens, UniProt Q99677)
T1 construct: gene LPAR4

[2] = molecular target: T2, GPR132 (Homo sapiens, UniProt Q9UNW8)
T2 sequence (Q9UNW8 1-380): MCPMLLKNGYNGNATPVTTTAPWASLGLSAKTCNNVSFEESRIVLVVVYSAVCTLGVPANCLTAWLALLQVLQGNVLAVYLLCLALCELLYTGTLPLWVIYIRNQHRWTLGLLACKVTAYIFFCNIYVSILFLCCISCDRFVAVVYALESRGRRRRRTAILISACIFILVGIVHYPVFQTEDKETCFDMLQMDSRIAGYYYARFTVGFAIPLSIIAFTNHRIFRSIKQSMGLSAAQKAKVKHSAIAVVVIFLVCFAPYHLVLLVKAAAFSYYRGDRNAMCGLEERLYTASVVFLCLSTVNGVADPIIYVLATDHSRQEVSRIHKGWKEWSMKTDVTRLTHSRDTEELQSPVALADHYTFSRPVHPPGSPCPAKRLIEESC

[3] = molecular target: T3, G protein-coupled receptor 17 short (Homo sapiens, UniProt Q13304)
T3 construct: gene GPR17; short isoform

[4] = molecular target: T4, purinergic receptor P2Y, G-protein coupled, 1 (Homo sapiens, UniProt P47900)
T4 construct: gene P2RY1

[5] = molecular target: T5, secretin receptor (Homo sapiens, UniProt P47872)
T5 construct: gene SCTR

[6] = molecular target: T6, relaxin/insulin-like family peptide receptor 4 (Homo sapiens, UniProt Q8TDU9)
T6 construct: gene RXFP4

[7] = molecular target: T7, prostaglandin E receptor 3 iso6 (Homo sapiens, UniProt P43115)
T7 construct: gene PTGER3; iso6
T7 sequence (P43115 1-390): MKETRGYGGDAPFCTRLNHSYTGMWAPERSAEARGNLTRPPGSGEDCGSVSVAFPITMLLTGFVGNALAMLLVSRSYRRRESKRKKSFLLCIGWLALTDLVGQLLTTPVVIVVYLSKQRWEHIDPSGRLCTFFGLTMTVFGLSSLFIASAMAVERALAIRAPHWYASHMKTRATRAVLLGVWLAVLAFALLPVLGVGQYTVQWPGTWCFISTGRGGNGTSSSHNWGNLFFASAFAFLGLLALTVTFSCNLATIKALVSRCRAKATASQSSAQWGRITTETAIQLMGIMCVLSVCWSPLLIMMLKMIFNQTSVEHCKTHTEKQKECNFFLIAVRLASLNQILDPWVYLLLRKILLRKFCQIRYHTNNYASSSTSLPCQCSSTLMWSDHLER

[8] = molecular target: T8, 5-hydroxytryptamine receptor 1F (Homo sapiens, UniProt P30939)
T8 construct: gene HTR1F
T8 sequence (P30939 1-366): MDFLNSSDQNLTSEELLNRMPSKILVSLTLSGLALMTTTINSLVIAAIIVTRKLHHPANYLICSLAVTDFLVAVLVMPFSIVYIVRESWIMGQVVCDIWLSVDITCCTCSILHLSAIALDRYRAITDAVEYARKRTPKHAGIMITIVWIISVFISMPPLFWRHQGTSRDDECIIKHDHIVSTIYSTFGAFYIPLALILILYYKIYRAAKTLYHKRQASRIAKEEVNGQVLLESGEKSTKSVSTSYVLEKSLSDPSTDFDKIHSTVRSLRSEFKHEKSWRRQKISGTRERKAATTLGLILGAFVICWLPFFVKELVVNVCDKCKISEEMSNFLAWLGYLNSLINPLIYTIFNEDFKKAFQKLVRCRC

[9] = molecular target: T9, purinergic receptor P2Y, G-protein coupled, 13 short (Homo sapiens, UniProt Q9BPV8)
T9 construct: gene P2RY13; short
T9 sequence (Q9BPV8 1-354): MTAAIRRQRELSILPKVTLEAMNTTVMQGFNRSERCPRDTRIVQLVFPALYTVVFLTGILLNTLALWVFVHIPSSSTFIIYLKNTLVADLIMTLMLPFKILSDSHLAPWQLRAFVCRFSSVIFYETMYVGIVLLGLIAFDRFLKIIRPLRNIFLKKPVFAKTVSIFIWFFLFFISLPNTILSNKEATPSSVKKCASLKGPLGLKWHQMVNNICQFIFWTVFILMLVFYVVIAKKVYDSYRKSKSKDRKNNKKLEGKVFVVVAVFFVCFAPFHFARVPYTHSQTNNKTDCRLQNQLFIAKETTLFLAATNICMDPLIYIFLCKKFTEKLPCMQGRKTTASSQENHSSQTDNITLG

[10] = read-out: % GPCR activation of 10μM GS441524 compared to TPA
[11] = read-out: % GPCR activation of 10µM Remdesivir compared to TPA
[12] = read-out: % GPCR activation of 10μM Sofosbuvir compared to TPA
[13] = read-out: % GPCR activation of 100μM Favipiravir compared to TPA
[14] = read-out: % GPCR activation of 10µM Molnupiravir compared to TPA

T6 sequence (Q8TDU9 whole entry): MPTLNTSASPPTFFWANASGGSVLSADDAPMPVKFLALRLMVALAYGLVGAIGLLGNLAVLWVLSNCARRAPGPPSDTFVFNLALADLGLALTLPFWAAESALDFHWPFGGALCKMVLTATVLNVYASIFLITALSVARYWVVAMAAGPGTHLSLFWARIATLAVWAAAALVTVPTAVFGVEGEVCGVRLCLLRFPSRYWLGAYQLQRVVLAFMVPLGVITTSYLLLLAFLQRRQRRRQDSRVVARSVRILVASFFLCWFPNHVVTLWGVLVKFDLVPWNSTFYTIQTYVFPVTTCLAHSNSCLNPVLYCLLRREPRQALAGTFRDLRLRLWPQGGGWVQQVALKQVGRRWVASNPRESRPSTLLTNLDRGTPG
T5 sequence (P47872 whole entry): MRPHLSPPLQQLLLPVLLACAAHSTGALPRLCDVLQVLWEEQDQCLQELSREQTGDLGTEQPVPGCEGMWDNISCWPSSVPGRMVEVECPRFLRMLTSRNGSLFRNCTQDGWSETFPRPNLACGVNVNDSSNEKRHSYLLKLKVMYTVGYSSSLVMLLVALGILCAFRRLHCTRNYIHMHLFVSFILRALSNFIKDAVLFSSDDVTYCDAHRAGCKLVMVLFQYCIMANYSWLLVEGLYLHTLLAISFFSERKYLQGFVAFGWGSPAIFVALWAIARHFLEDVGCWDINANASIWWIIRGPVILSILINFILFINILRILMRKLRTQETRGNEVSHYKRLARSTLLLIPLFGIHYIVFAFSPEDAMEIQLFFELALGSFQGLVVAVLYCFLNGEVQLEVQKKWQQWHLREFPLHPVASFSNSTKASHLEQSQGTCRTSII
T3 sequence (Q13304 whole entry, canonical isoform): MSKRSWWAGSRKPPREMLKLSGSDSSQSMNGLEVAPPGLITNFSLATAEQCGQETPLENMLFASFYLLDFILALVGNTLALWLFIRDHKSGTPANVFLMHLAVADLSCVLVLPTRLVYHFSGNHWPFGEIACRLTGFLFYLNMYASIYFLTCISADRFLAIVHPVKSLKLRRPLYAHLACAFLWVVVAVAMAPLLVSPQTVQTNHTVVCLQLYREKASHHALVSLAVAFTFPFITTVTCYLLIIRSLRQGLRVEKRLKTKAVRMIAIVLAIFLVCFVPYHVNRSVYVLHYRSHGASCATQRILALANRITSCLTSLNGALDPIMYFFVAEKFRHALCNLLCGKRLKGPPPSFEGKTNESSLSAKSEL
T1 sequence (Q99677 whole entry): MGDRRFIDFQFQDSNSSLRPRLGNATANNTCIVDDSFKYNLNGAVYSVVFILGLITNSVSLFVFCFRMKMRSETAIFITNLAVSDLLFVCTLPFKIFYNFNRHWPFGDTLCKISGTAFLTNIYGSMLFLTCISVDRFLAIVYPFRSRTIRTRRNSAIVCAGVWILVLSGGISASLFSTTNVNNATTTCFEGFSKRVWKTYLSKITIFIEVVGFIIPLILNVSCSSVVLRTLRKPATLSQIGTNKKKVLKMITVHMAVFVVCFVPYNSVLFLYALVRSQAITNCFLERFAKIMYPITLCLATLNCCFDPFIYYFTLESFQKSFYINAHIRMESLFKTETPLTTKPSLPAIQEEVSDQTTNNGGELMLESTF
T4 sequence (P47900 whole entry): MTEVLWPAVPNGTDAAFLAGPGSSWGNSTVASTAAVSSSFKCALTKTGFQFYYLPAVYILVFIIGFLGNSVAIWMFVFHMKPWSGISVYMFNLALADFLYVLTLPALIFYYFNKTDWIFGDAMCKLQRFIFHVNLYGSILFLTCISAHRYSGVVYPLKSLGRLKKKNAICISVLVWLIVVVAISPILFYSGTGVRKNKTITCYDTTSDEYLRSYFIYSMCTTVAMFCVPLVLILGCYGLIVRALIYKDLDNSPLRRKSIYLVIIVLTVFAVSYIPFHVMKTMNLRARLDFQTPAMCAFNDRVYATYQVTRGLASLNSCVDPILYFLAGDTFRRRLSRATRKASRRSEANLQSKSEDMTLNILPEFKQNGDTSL

N#C[C@@]1(c2ccc3c(N)ncnn23)O[C@H](CO)[C@@H](O)[C@H]1O [GS441524]
activity at 10 µM [1, 10]: 1.19%
activity at 10 µM [2, 10]: -8.13%
activity at 10 µM [3, 10]: 2.36%
activity at 10 µM [4, 10]: -0.459%
activity at 10 µM [5, 10]: 0.894%
activity at 10 µM [6, 10]: -0.338%
activity at 10 µM [7, 10]: -0.459%
activity at 10 µM [8, 10]: 0.356%
activity at 10 µM [9, 10]: 0.947%

CCC(CC)COC(=O)[C@H](C)N[P@](=O)(OC[C@H]1O[C@@](C#N)(c2ccc3c(N)ncnn23)[C@H](O)[C@@H]1O)Oc1ccccc1 [remdesivir]
activity at 10 µM [1, 11]: -0.0834%
activity at 10 µM [2, 11]: 11%
activity at 10 µM [3, 11]: 2.96%
activity at 10 µM [4, 11]: 11%
activity at 10 µM [5, 11]: -0.951%
activity at 10 µM [6, 11]: 0.997%
activity at 10 µM [7, 11]: 1.47%
activity at 10 µM [8, 11]: -2.15%
activity at 10 µM [9, 11]: 2.55%

CC(C)OC(=O)[C@H](C)N[P@](=O)(OC[C@H]1O[C@@H](n2ccc(=O)[nH]c2=O)[C@](C)(F)[C@@H]1O)Oc1ccccc1 [sofosbuvir]
activity at 10 µM [1, 12]: 3.13%
activity at 10 µM [2, 12]: -1.37%
activity at 10 µM [3, 12]: 1.81%
activity at 10 µM [4, 12]: -4.63%
activity at 10 µM [5, 12]: 0.153%
activity at 10 µM [6, 12]: -1.57%
activity at 10 µM [7, 12]: -2.67%
activity at 10 µM [8, 12]: -0.816%
activity at 10 µM [9, 12]: -2.68%

NC(=O)c1nc(F)cnc1O [favipiravir, 6-fluoro-3-hydroxy-2-pyrazinecarboxamide]
activity at 100 µM [1, 13]: -0.546%
activity at 100 µM [2, 13]: 7.4%
activity at 100 µM [3, 13]: -0.501%
activity at 100 µM [4, 13]: 0.43%
activity at 100 µM [5, 13]: -0.513%
activity at 100 µM [6, 13]: 1.69%
activity at 100 µM [7, 13]: 0.28%
activity at 100 µM [8, 13]: 1.63%
activity at 100 µM [9, 13]: 1.7%

CC(C)C(=O)OC[C@H]1O[C@@H](n2ccc(NO)nc2=O)[C@H](O)[C@@H]1O [molnupiravir]
activity at 10 µM [1, 14]: -0.213%
activity at 10 µM [2, 14]: -1.8%
activity at 10 µM [3, 14]: 0.174%
activity at 10 µM [4, 14]: -11.8%
activity at 10 µM [5, 14]: -0.0837%
activity at 10 µM [6, 14]: -0.46%
activity at 10 µM [7, 14]: -0.792%
activity at 10 µM [8, 14]: 0.719%
activity at 10 µM [9, 14]: -3.48%
